SMILES strings stand for the structures.

The data set relates to pancreatic enzymes. Put plainly: Stability in simulated small intestine (pancreatic hydrolysis), released substituent acid detected by HPLC. It counts as in vitro ADME. Particulars: incubation in simulated intestinal environment. The text has this:
The compounds analysed are esters between primary or secondary alcohols and fatty acids. In the stomach, the influence of the pH value and its chemical effect is decisive. The stability of the molecules there depends mainly on the nature of the bond. This is the same for all the molecules analysed. […] In contrast, hydrolysis in the small intestine is enzymatically catalysed and the stability can vary greatly between the molecules studied. The work on stability was therefore focussed on pancreatic hydrolysis.
The synthesised ester compounds consisted of a fructooligosaccharide scaffold of the inulin or levan type, to which substituent molecules were bound via an ester bond. Organic acids, predominantly butyric acid, and also propionic acid, acetic acid, succinic acid and benzoic acid served as substituents. The study consisted of incubating the substances in a simulated intestinal environment, followed by the detection of the substituent acid present and, if applicable, released by means of HPLC. Tributyrin was used as a positive control according to the literature.

Regarding `CCCC(=O)OCC(COC(=O)CCC)OC(=O)CCC` [Tributyrin], the “stability under the test conditions of the simulated small intestine” value is “largely hydrolysed”.
